# Columns and labels:
# Assay in all cases: Antibiotic activity (MIC), Table 1
# Format in all cases: cell-based
# [1] = tested on: S. aureus 209P JC-1
# [2] = tested on: S. faecalis Imanari
# [3] = tested on: B. subtilis ATCC 6633; details: B. subtilis ATCC 6633
# [4] = tested on: E. coli NIHJ JC-2; details: E. coli NIHJ JC-2
# [5] = tested on: K. pneumoniae PCI 602; details: K. pneumoniae PCI 602
# [6] = tested on: E. cloacae IID 977; details: E. cloacae IID 977
# [7] = tested on: S. marcescens NHL
# [8] = tested on: P. inconstans 93; details: P. inconstans 93
# [9] = tested on: P. vulgaris IID 874; details: P. vulgaris IID 874
# [10] = tested on: P. aeruginosa NCTC 10490; details: P. aeruginosa NCTC 10490
# [11] = tested on: P. cepacia 11D 1340
# [12] = tested on: P. maltophilia IID 1275; details: P. maltophilia IID 1275
# [13] = tested on: P. putida IID 5121; details: P. putida IID 5121
# [14] = tested on: E. coli ML 1410; details: E. coli ML 1410
# [15] = tested on: E. coli ML 1410 R81 (APH(3')-I)
# [16] = tested on: P. aeruginosa TI 13 (APH(3')-I)
# [17] = tested on: E. coli ML 1410 R83 (APH(3')-II)
# [18] = tested on: P. aerugionosa TK-157 (APH(3')-II)
# [19] = tested on: E. coli ML 1410 R102 (AAD(2"))
# [20] = tested on: K. pneumoniae 4687 (AAD(2"))
# [21] = tested on: E. coli ML 1410 R82 (AAD(3"))
# [22] = tested on: P. aeruginosa GN315 (AAC(6')-IV); details: P. aeruginosa GN315 (AAC(6')-IV)
# [23] = tested on: E. coli JR 88 (AAC(3)-I)
# [24] = tested on: P. aeruginosa 99 (AAC(3)-I)
# [25] = tested on: E. coli R176 (AAC(3)-II)
# [26] = tested on: P. aeruginosa RST-1 (AAC(3)-III)
# [27] = tested on: P. inconstans GN1554 (AAC(2')); details: P. inconstans GN1554 (AAC(2'))
structure (smiles),measurement,setting,value
"CNC1C(OC)CC(N)C(OC2OC(C(C)N)CCC2N)C1O (stereo not drawn) [KA-6606II, reference compound]",MIC,[1],25 µg/mL
same,MIC,[2],100 µg/mL
same,MIC,[3],6.25 µg/mL
same,MIC,[4],50 µg/mL
same,MIC,[5],> 100 µg/mL
same,MIC,[6],> 100 µg/mL
same,MIC,[7],100 µg/mL
same,MIC,[8],> 100 µg/mL
same,MIC,[9],100 µg/mL
same,MIC,[10],> 100 µg/mL
same,MIC,[11],> 100 µg/mL
same,MIC,[12],> 100 µg/mL
same,MIC,[13],> 100 µg/mL
same,MIC,[14],> 100 µg/mL
same,MIC,[15],> 100 µg/mL
same,MIC,[16],> 100 µg/mL
same,MIC,[17],> 100 µg/mL
same,MIC,[18],> 100 µg/mL
same,MIC,[19],> 100 µg/mL
same,MIC,[20],> 100 µg/mL
same,MIC,[21],> 100 µg/mL
same,MIC,[22],> 100 µg/mL
same,MIC,[23],> 100 µg/mL
same,MIC,[24],> 100 µg/mL
same,MIC,[25],> 100 µg/mL
same,MIC,[26],> 100 µg/mL
same,MIC,[27],> 100 µg/mL
